The record followed here is patent US8551999B2, “Heterocyclic compound and pharmaceutical composition thereof” (Otsuka Pharmaceutical Co., Ltd., priority 2007, dated 2013).

One may read the melting point as the temperature of the solid-liquid transition. `COc1ccc(CN2CCN(C(=O)c3cc4cc(Oc5ccc(N(C)C(=O)c6ccc(-n7cccc7)nc6)cn5)ccc4n3C)CC2)cc1.O=C(O)C(=O)O.O=C(O)C(=O)O` [Example 227, N-(6-{2-[4-(4-Methoxybenzyl)piperazine-1-carbonyl]-1-methyl-1H-indol-5-yloxy}pyridin-3-yl)-N-methyl-6-pyrrol-1-ylnicotinamide dioxalate] returned a melting point of 185 to 187 °C.

With `Br.CC(C)Oc1ccc(CN2CCN(C(=O)c3cc4ccc(Oc5ccc(NC(=O)c6ccc(Cl)c(Cl)c6)cn5)cc4n3C)CC2)cc1` [Example 255, 3,4-Dichloro-N-(6-{2-[4-(4-isopropoxybenzyl)piperazine-1-carbonyl]-1-methyl-1H-indol-6-yloxy}pyridin-3-yl)benzamide hydrobromide], the melting point fell in the range of 239.7 to 243.5 °C.

The compound `Br.COc1cccc(CN2CCN(C(=O)c3cc4cc(Oc5ccc(NC(=O)c6ccc(C(F)(F)F)cc6)cn5)ccc4n3C)CC2)c1` [Example 353, N-(6-{2-[4-(3-Methoxybenzyl)piperazine-1-carbonyl]-1-methyl-1H-indol-5-yloxy}pyridin-3-yl)-4-trifluoromethylbenzamide hydrobromide] registered a melting point of 231 to 233 °C.

With `Br.Br.COc1ccc(CN2CCN(C(=O)c3cc4cc(Oc5ccc(NC(=O)c6ccc(Cl)c(Cl)c6)cn5)ccc4n3C)CC2)nc1` [Example 388, 3,4-Dichloro-N-(6-{2-[4-(5-methoxypyridin-2-ylmethyl)piperazine-1-carbonyl]-1-methyl-1H-indol-5-yloxy}pyridin-3-yl)benzamide dihydrobromide], the melting point was in the range of 223 to 225 °C.

`Cc1ccc(S(=O)(=O)N(C)c2ccc(Oc3ccc4c(c3)cc(C(=O)N3CCN(Cc5ccc(OCC(F)(F)F)cc5)CC3)n4C)nc2)cc1.Cl`: the melting point was 239.1 to 239.8 °C.

Regarding `Br.CN(C(=O)c1ccc(C(F)(F)F)cc1)c1ccc(Oc2ccc3cc(C(=O)N4CCN(Cc5ccc(OCCF)cc5)CC4)n(C)c3c2)nc1` [Example 438, N-[6-(2-{4-[4-(2-Fluoroethoxy)benzyl]piperazine-1-carbonyl}-1-methyl-1H-indol-6-yloxy)pyridin-3-yl]-N-methyl-4-trifluoromethyl-benzamide hydrobromide], the melting point is 215.3 to 216.6 °C.

Regarding `Br.CN(C(=O)c1ccc(OC(F)F)cc1)c1ccc(Oc2ccc3cc(C(=O)N4CCN(Cc5ccc(OCC(F)F)cc5)CC4)n(C)c3c2)nc1` [Example 283, N-[6-(2-{4-[4-(2,2-Difluoroethoxy)benzyl]piperazine-1-carbonyl}-1-methyl-1H-indol-6-yloxy)pyridin-3-yl]-4-difluoromethoxy-N-methylbenzamide hydrobromide], the melting point was in the range of 196.9 to 198.6 °C.

For the compound `Br.COc1ccc(CN2CCN(C(=O)c3cc4cc(Oc5ccc(N(C)C(=O)c6ccc(C(F)(F)F)cc6)cn5)ccc4n3C)CC2)cc1OC` [Example 345, N-(6-{2-[4-(3,4-Dimethoxybenzyl)piperazine-1-carbonyl]-1-methyl-1H-indol-5-yloxy}pyridin-3-yl)-N-methyl-4-trifluoromethyl-benzamide hydrobromide], the melting point is 175 to 177 °C.

For `Cl.Cn1c(C(=O)N2CCN(Cc3ccc(OC(F)F)cc3)CC2)cc2ccc(Oc3ncc(NC(=O)c4ccc(C(F)(F)F)cc4)cn3)cc21`, the melting point lay in the range of 247.7 to 249.8 °C.

On to `Br.Cn1c(C(=O)N2CCN(Cc3ccc4c(c3)OCO4)CC2)cc2ccc(Oc3ccc(NC(=O)c4ccc(Cl)c(Cl)c4)cn3)cc21` [Example 257, N-{6-[2-(4-Benzo[1,3]dioxol-5-ylmethylpiperazine-1-carbonyl)-1-methyl-1H-indol-6-yloxy]pyridin-3-yl}-3,4-dichlorobenzamide hydrobromide], for which the melting point was 241.3 to 243.9 °C.
